The supplement of paper PMC8671470

System: MV4-11
Assay: cell viability (% survival relative to DMSO control, bortezomib = 0%); higher = less cytotoxic
Conditions: 100 nM; 72 h
In short: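 Seeding density for each of the 10 AML and 5 CML cell lines was titrated to the linear growth range. Cells went into 384-well plates pre-printed in duplicate with compounds at 1, 10, 100, 1000 or 10000 nM and were held for 72 h at 37 °C with 5% CO2. CellTiter-Glo luminescence then provided the readout. Percent survival is expressed relative to vehicle at 100% and a 10 µM positive control at 0%, averaged over duplicates.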

Compound	cell viability [%]
CCCCCCCCCCCCC/C=C/[C@@H](O)[C@H](CO)N(C)C [N,N-Dimethylsphingosine]	95
CCCCCCCNC=O [N-Heptyl-Formamide]	93.7

Same assay, conditions: 1000 nM; 72 h

Compound	cell viability [%]
O=C(Oc1ccc([N+](=O)[O-])cc1)N1CCC(C(O)(c2ccc3c(c2)OCO3)c2ccc3c(c2)OCO3)CC1 [JZL184]	94.5
O=C1N[C@@H]2[C@@H](O)[C@@H](O)[C@H](O)[C@@H](CO)N2C1=O [Kifunensine]	82.9
CC(C)(CCCCCCCCCCC(C)(C)CC(=O)O)CC(=O)O [MEDICA 16]	102
Cc1nnc(-c2ccc(N3CCC(Oc4ccccc4C(F)(F)F)CC3)nn2)s1 [MF-438]	99.2
CC(C)c1ccc2c(c1)c(SC(C)(C)C)c(CC(C)(C)C(=O)O)n2Cc1ccc(Cl)cc1 [MK-886]	94.5
O=C(CCl)N(CCCNC(=O)C(F)(F)F)c1ccc([N+](=O)[O-])cc1 [ML175]	-0.18
CN(C)C(=N)NC(=N)N [Metformin]	107
Cl.OC[C@H]1NC[C@H](O)[C@@H](O)[C@H]1O [Migalastat]	104
OCCN1C[C@H](O)[C@@H](O)[C@H](O)[C@H]1CO [Miglitol]	106
CCCCCCCCCCCCC/C=C/[C@@H](O)[C@H](CO)N(C)C [N,N-Dimethylsphingosine]	117
CCCCCCCNC=O [N-Heptyl-Formamide]	105

Same assay, conditions: 10000 nM; 72 h

Compound	cell viability [%]
O=C(Oc1ccc([N+](=O)[O-])cc1)N1CCC(C(O)(c2ccc3c(c2)OCO3)c2ccc3c(c2)OCO3)CC1 [JZL184]	88.5
O=C1N[C@@H]2[C@@H](O)[C@@H](O)[C@H](O)[C@@H](CO)N2C1=O [Kifunensine]	72.1
CC(C)(CCCCCCCCCCC(C)(C)CC(=O)O)CC(=O)O [MEDICA 16]	116
Cc1nnc(-c2ccc(N3CCC(Oc4ccccc4C(F)(F)F)CC3)nn2)s1 [MF-438]	45.3
CC(C)c1ccc2c(c1)c(SC(C)(C)C)c(CC(C)(C)C(=O)O)n2Cc1ccc(Cl)cc1 [MK-886]	96.5
O=C(CCl)N(CCCNC(=O)C(F)(F)F)c1ccc([N+](=O)[O-])cc1 [ML175]	-0.931
CN(C)C(=N)NC(=N)N [Metformin]	84.7
Cl.OC[C@H]1NC[C@H](O)[C@@H](O)[C@H]1O [Migalastat]	97.2
OCCN1C[C@H](O)[C@@H](O)[C@H](O)[C@H]1CO [Miglitol]	106
CCCCCCCCCCCCC/C=C/[C@@H](O)[C@H](CO)N(C)C [N,N-Dimethylsphingosine]	95.8
CCCCCCCNC=O [N-Heptyl-Formamide]	94.4

System: HL-60
Assay: area under dose-response curve (viability, 1 nM-10 uM) (fraction (0-1)); higher = more sensitive
Conditions: 72 h; co-treatment: AZD3965 100 nM
In short: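 In 384-well plates, the full library was rescreened in duplicate on HL-60 cells in RPMI 1640 with 10% FBS, at 1–10,000 nM in five tenfold concentrations, for 72 h at 37 °C, 5% CO2. Each run also held DMSO or 100 nM of one of three metabolic inhibitors. Viability was measured by CellTiter-Glo and normalised to DMSO wells and to wells with proteasome inhibitor, present at 10 μM. Any area under the curve comes from four-parameter log-logistic fitting with drc and PharmacoGx.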

Compound	area under dose-response curve
O=C(Oc1ccc([N+](=O)[O-])cc1)N1CCC(C(O)(c2ccc3c(c2)OCO3)c2ccc3c(c2)OCO3)CC1 [JZL184]	< 0.0301
O=C1N[C@@H]2[C@@H](O)[C@@H](O)[C@H](O)[C@@H](CO)N2C1=O [Kifunensine]	< 0.0301
CC(C)(CCCCCCCCCCC(C)(C)CC(=O)O)CC(=O)O [MEDICA 16]	< 0.0301
Cc1nnc(-c2ccc(N3CCC(Oc4ccccc4C(F)(F)F)CC3)nn2)s1 [MF-438]	< 0.0301
CC(C)c1ccc2c(c1)c(SC(C)(C)C)c(CC(C)(C)C(=O)O)n2Cc1ccc(Cl)cc1 [MK-886]	< 0.0301
O=C(CCl)N(CCCNC(=O)C(F)(F)F)c1ccc([N+](=O)[O-])cc1 [ML175]	0.125
CN(C)C(=N)NC(=N)N [Metformin]	< 0.0301
Cl.OC[C@H]1NC[C@H](O)[C@@H](O)[C@H]1O [Migalastat]	< 0.0301
OCCN1C[C@H](O)[C@@H](O)[C@H](O)[C@H]1CO [Miglitol]	< 0.0301
CCCCCCCCCCCCC/C=C/[C@@H](O)[C@H](CO)N(C)C [N,N-Dimethylsphingosine]	0.132
CCCCCCCNC=O [N-Heptyl-Formamide]	< 0.0301

Same assay, conditions: 72 h; co-treatment: DMSO vehicle

Compound	area under dose-response curve
O=C(Oc1ccc([N+](=O)[O-])cc1)N1CCC(C(O)(c2ccc3c(c2)OCO3)c2ccc3c(c2)OCO3)CC1 [JZL184]	< 0.0301
O=C1N[C@@H]2[C@@H](O)[C@@H](O)[C@H](O)[C@@H](CO)N2C1=O [Kifunensine]	< 0.0301
CC(C)(CCCCCCCCCCC(C)(C)CC(=O)O)CC(=O)O [MEDICA 16]	< 0.0301
Cc1nnc(-c2ccc(N3CCC(Oc4ccccc4C(F)(F)F)CC3)nn2)s1 [MF-438]	< 0.0301
CC(C)c1ccc2c(c1)c(SC(C)(C)C)c(CC(C)(C)C(=O)O)n2Cc1ccc(Cl)cc1 [MK-886]	< 0.0301
O=C(CCl)N(CCCNC(=O)C(F)(F)F)c1ccc([N+](=O)[O-])cc1 [ML175]	0.133
CN(C)C(=N)NC(=N)N [Metformin]	< 0.0301
Cl.OC[C@H]1NC[C@H](O)[C@@H](O)[C@H]1O [Migalastat]	< 0.0301
OCCN1C[C@H](O)[C@@H](O)[C@H](O)[C@H]1CO [Miglitol]	< 0.0301
CCCCCCCCCCCCC/C=C/[C@@H](O)[C@H](CO)N(C)C [N,N-Dimethylsphingosine]	0.132
CCCCCCCNC=O [N-Heptyl-Formamide]	< 0.0301

Same assay, conditions: 72 h; co-treatment: GSK2194069 100 nM

Compound	area under dose-response curve
O=C(Oc1ccc([N+](=O)[O-])cc1)N1CCC(C(O)(c2ccc3c(c2)OCO3)c2ccc3c(c2)OCO3)CC1 [JZL184]	< 0.0301
O=C1N[C@@H]2[C@@H](O)[C@@H](O)[C@H](O)[C@@H](CO)N2C1=O [Kifunensine]	< 0.0301
CC(C)(CCCCCCCCCCC(C)(C)CC(=O)O)CC(=O)O [MEDICA 16]	< 0.0301
Cc1nnc(-c2ccc(N3CCC(Oc4ccccc4C(F)(F)F)CC3)nn2)s1 [MF-438]	< 0.0301
CC(C)c1ccc2c(c1)c(SC(C)(C)C)c(CC(C)(C)C(=O)O)n2Cc1ccc(Cl)cc1 [MK-886]	< 0.0301
O=C(CCl)N(CCCNC(=O)C(F)(F)F)c1ccc([N+](=O)[O-])cc1 [ML175]	0.14
CN(C)C(=N)NC(=N)N [Metformin]	< 0.0301
Cl.OC[C@H]1NC[C@H](O)[C@@H](O)[C@H]1O [Migalastat]	< 0.0301
OCCN1C[C@H](O)[C@@H](O)[C@H](O)[C@H]1CO [Miglitol]	< 0.0301
CCCCCCCCCCCCC/C=C/[C@@H](O)[C@H](CO)N(C)C [N,N-Dimethylsphingosine]	< 0.0301
CCCCCCCNC=O [N-Heptyl-Formamide]	< 0.0301

Same assay, conditions: 72 h; co-treatment: pictilisib 100 nM

Compound	area under dose-response curve
O=C(Oc1ccc([N+](=O)[O-])cc1)N1CCC(C(O)(c2ccc3c(c2)OCO3)c2ccc3c(c2)OCO3)CC1 [JZL184]	< 0.0301
O=C1N[C@@H]2[C@@H](O)[C@@H](O)[C@H](O)[C@@H](CO)N2C1=O [Kifunensine]	< 0.0301
CC(C)(CCCCCCCCCCC(C)(C)CC(=O)O)CC(=O)O [MEDICA 16]	< 0.0301
Cc1nnc(-c2ccc(N3CCC(Oc4ccccc4C(F)(F)F)CC3)nn2)s1 [MF-438]	< 0.0301
CC(C)c1ccc2c(c1)c(SC(C)(C)C)c(CC(C)(C)C(=O)O)n2Cc1ccc(Cl)cc1 [MK-886]	< 0.0301
O=C(CCl)N(CCCNC(=O)C(F)(F)F)c1ccc([N+](=O)[O-])cc1 [ML175]	0.136
CN(C)C(=N)NC(=N)N [Metformin]	< 0.0301
Cl.OC[C@H]1NC[C@H](O)[C@@H](O)[C@H]1O [Migalastat]	< 0.0301
